The values that follow come from US20250381269A1, “BISPECIFIC ANTIBODY BINDING EGFR AND B7-H3” (FORTVITA BIOLOGICS (SINGAPORE) PTE. LTD., priority 2022, published 2025).

pEC50, pIC50: −log10 of the molar value.

Test [1] has as its system H1650. The test is described as follows: Proliferation inhibition experiment, H1650 (NSCLC). It counts as cell-based. As to conditions: EGFR Amplification Del19, KRAS WT. The procedure: • (1) NSCLC: plated at 1500-2500 cells/100 μL in a 96-well low-adsorption plate (Corning, CLS7007-24EA) for 3D cell culture, in which the following cell lines and specific amounts were used: • NSCLC: 2000 cells/100 μL/well • NCI-H292: Cell Bank of the Chinese Academy of Sciences, SCSP-582 • NCI-H322: Cobioer, CBP60134 • NCI-H1650: ATCC, CRL-5883 • NCI-H1975: ATCC, CRL-5908 • SK-MES-1: CoBioer, CBP60152 • NCI-H1703: ATCC, HTB-43 • PC9+hB7H3: constructed as described above • CRC and HNSCC: plated at 1500-2000 cells/100 μL in a 96-well white-bottom plate (NUNC, 136101) for 2D cell culture, in which the following cell lines and specific amounts were used: • CRC: 1500 cells/100 μL/well • CCK-81: CoBioer, CBP60581 • HT-55: CoBioer, CBP60012 • H508: CoBioer, CBP60795 • LS180: CoBioer, CBP60034 • HNSCC: 1500 cells/100 μL/well • TE-1: CoBioer, CBP60655 • Colo680: CoBioer, CBP60452. (2) The antibody molecules prepared in advance by dilution were added to the corresponding cell well plate, mixed well, and cultured in an incubator at 37° C. with 5% CO2 for 5 days. • (3) After 5 days of continuous culture for proliferation inhibition assay, the Cell-Titer reagent (Promega, G7572) prepared in advance was added to cell wells, the plate was left to stand at room temperature for 15-25 min in the dark, and then CRC and HNSCC cells were directly detected by a multimode microplate reader (Molecular Devices, Spectra MAXi3). • (4) NSCLC: Cell-Titer and the cell mixture were transferred to a 96-well white-bottom plate (NUNC, 136101) and detected by a multimode microplate reader (Molecular Devices, Spectra MAXi3).

The subject of the next test is H322. It counts as cell-based, human. As to conditions: EGFR WT, KRAS WT, huPBMC:target 50:1, 8 h, LDH. Here is the method:
(§1) • (1) A CTS medium (Gibco, A3021002) was preheated at 37° C. huPBMC (Miaotong Biotechnology, PB 100C-W) was quickly thawed in a water bath, and then the cells were added slowly to 8 mL of CTS medium (containing 1% DNase). • (2) The mixture was centrifuged at 300 g for 8 min. The supernatant was removed, and the cells were resuspended in 30 mL of CTS (containing 10 μL of DNase), transferred to a T75 flask, and incubated in an incubator at 37° C. overnight. • (3) The suspension cells cultured overnight were taken and centrifuged at 300 g for 8 min. The supernatant was removed, and the cell density was adjusted with CTS. According to an effector/target ratio of effector cells (huPBMCs) to target cells (tumor cells in Table 5) of 50:1, huPBMCs and the tumor cells prepared in advance (Target: huPBMC=1.5E4/7.5E5 cells/well/100 μL) were plated in a 96-well low-adsorption plate (Corning. CLS7007-24EA). • (4) The diluted antibody drug was added to the corresponding cell well plate and cultured at 37° C. with 5% CO2 for 8 h. • (5) The mixture was centrifuged at 300 g for 5 min. 50 μL of the supernatant was transferred to a 96-well transparent flat-bottom plate ((NUNC, 136101), 50 μL of the LDH reagent (Promega, G1780) prepared in advance was added to the corresponding well plate, and the plate was left to stand at room temperature for 15-30 min in the dark. • (6) 50 μL LDH stop solution (Promega, G1780) was taken and detected by a multimode microplate reader (Molecular Devices, Spectra MAXi3) at 490 nm for readings.

In a further test the test system is SK-MES-1. The test is classed as cell-based, human. As to conditions: EGFR Amplification, KRAS WT, huPBMC:target 50:1, 8 h, LDH. The procedure:
as §1

In the next test the test system is H1975. The test is classed as cell-based, human. The settings on record: EGFR L858R T790M, KRAS WT, huPBMC:target 50:1, 8 h, LDH. The procedure:
as §1

Another test relates to H358. It counts as cell-based, human. As to conditions: EGFR WT, KRAS G12C, huPBMC:target 50:1, 8 h, LDH. Here is the method:
as §1

Test [2] concerns H1650. It counts as cell-based, human. The settings on record: EGFR Amplification Del19, KRAS WT, huPBMC:target 50:1, 8 h, LDH. Here is the method: as §1
The test system of the next test is H292. The test is classed as cell-based, human. The settings on record: EGFR WT, KRAS WT, huPBMC:target 50:1, 8 h, LDH. The procedure:
as §1

In test [3] the test system is SK-MES-1 tumor-bearing mice. In words: Anti-tumor efficacy in SK-MES-1 tumor-bearing mice, 1 mg/kg single dose. It counts as in vivo. As to conditions: SK-MES-1, Balb/c Nude mice, day 24; for Tumor volume (mm^3): 1 mg/kg i.p. single dose on day 6; for Complete response rate / Tumor growth inhibition (%): 1 mg/kg i.p. single dose; for Complete response rate: 7 mice per group; for Tumor growth inhibition (%): vs h-IgG 1 mg/kg. An excerpt: SPF female Balb/c Nude mice (purchased from Beijing Vital River Laboratory Animal Technology Co., Ltd.) with certificate No. 110011211108966881 were used in the experiment.
SK-MES-1 cells were routinely subcultured for the subsequent in-vivo experiment. The cells were collected by centrifugation. Then the SK-MES-1 cells were resuspended in an equal-proportion mixture of PBS (1×) and Matrigel Matrix (Corning) to prepare a cell suspension with a cell concentration of 20×10^6 cells/mL. On day 0, 0.2 mL of the cell suspension was taken and subcutaneously inoculated to the right abdominal area of Balb/c Nude mice to establish SK-MES-1 tumor-bearing mouse models.
Six days after the tumor cell inoculation, the tumor volume in each mouse was measured. The mice were grouped (with 7 mice in each group).
Administration was performed once on day 6 after the inoculation of SK-MES-1 cells. Mice were monitored for tumor volume and body weight twice a week.
Tumor volume measurement: The maximum length of major axis (L) and maximum length of minor axis (W) of tumors were measured with a vernier caliper, and tumor volume was calculated by the following formula: V=L×W^2/2. The mice were weighed using an electronic balance.

What is called pIC50 is the negative decadic logarithm of the IC50, by convention in mol/L. Usually pEC50 stands for −log10 of the EC50, conventionally taken in molar units. Read a high pEC50 as a small EC50. amivantamab [JNJ372]: the “Max inhibition (%) Mean ± SD” value in the test on H1650 [1] is given as 31.0 ± 1.4%. This substance also gave a negative logarithm of the IC50 (pIC50) in the test on H1650 [1] (3D culture, 5 days) of 7.69. Moreover, the pEC50 in the test with H322 is 10.49; in the test with SK-MES-1, 10.14; in the test with H1975, 9.93; with H358, 10.52; with H1650 [2] it was 9.37; in the test on H292, 11.40. Further, the “Tumor volume (mm^3)” value in test [3] was 87 mm^3. Also, in test [3], the Complete response rate is 0/7. Besides, the “Tumor growth inhibition (%)” value in test [3] came to 122%.

In the case of zalutumumab [Zalu mAb], in the test with H1650 [1], the “Max inhibition (%) Mean ± SD” value is 26.8 ± 2.6%. For the same substance, the negative logarithm of the EC50 (pEC50) in the test on H322 is 10.85; with SK-MES-1, 10.85; in the test on H1975, 9.93; in the test with H358 it was 11.15; in the test on H1650 [2], 9.24; in the test on H292 it was 12.00. The “Tumor volume (mm^3)” value in test [3] came to 23 mm^3. The Complete response rate in test [3] was 2/7. In addition, the “Tumor growth inhibition (%)” value in test [3] is on record as 145%.
